Laboratory results as given in patent publication US11384060B2, “Amide compounds and use thereof” (ALPHALA CO., LTD., priority 2017, dated 2022).
Where two headings read alike, the source gives them in different places.

Experiments:
[1] = biological target: T1, glucagon receptor (GCGR) overexpressed CHO-K1 cells or human primary hepatocytes (Homo sapiens, UniProt P47871); assay: Glucagon cAMP inhibition assay (Cisbio cAMP Dynamic 2 HTRF); type: cell-based
T1 construct: expressed in transfected cells; host or cells: GCGR overexpressed CHO-K1 cells or human primary hepatocytes (endogenous receptor)
T1 sequence (P47871 26-477): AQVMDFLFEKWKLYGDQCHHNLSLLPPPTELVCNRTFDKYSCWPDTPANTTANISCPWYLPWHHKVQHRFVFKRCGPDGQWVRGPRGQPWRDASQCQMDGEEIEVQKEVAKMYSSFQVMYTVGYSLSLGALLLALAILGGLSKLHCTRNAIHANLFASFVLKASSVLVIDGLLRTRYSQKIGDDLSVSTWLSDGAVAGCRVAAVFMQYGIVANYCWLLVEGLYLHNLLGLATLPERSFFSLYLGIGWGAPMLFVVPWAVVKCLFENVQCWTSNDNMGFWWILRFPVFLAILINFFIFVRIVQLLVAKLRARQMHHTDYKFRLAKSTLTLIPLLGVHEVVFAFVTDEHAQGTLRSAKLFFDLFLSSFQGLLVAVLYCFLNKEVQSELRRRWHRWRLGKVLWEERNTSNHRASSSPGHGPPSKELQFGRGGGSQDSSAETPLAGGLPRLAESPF
Summary of the method: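 GCGR-overexpressing CHO-K1 cells or human primary hepatocytes in HBSS with 0.1% BSA and 800 nM IBMX, pre-incubated 30 min with serially diluted compounds (1% DMSO final), then stimulated 30 min at room temperature with glucagon at its EC50. cAMP measured by HTRF after 60 min lysis; IC50 by non-linear regression.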

glucagon receptor (GCGR) = biological target: T2, glucagon receptor (GCGR) (Homo sapiens, UniProt P47871); assay: I125-glucagon binding assay (competition, GCGR membrane fractions)
T2 construct: expressed in transfected cells; host or cells: CHO-K1 cells overexpressing GCGR (membrane fractions)
T2 sequence (P47871 26-477): as above
Summary of the method: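 Membranes from CHO-K1 cells overexpressing GCGR, 7.5 μg/well in 50 mM Tris pH 7.4 with 0.5% BSA, were preincubated 5 min with serially diluted compounds, then given 0.0625 nM final I^125-glucagon for 30 min at 25° C. Bound label was filtered on PEI-coated GF/B and counted; IC50 by non-linear regression.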

[2] = inhibition of glucagon (EC50 concentration) induced cAMP production
[3] = competition with I125-glucagon 0.0625 nM, membrane fractions of GCGR overexpressed CHO-K1 cells

| SMILES | IC50 cAMP [1] | IC50 (glucagon receptor (GCGR)) | IC50 cAMP [1, 2] | IC50 (glucagon receptor (GCGR); [3]) | other results |
| --- | --- | --- | --- | --- | --- |
| CCCC[C@@H](COc1ccc(-c2cc3ccccc3o2)cn1)Nc1ccc(C(=O)NCCS(=O)(=O)O)cc1 [Compound 15-23, (S)-2-(4-((1-((5-(benzofuran-2-yl)pyridin-2-yl)oxy)hexan-2-yl)amino)benzamido) ethane-1-sulfonic Acid] | >30 µM | 0.453 µM | – | – | – |
| CC[C@H](C)[C@@H](COc1ccc(-c2ccc(OC)cc2Cl)cc1)Nc1ccc(C(=O)NCCC(=O)O)cc1 [Compound 1-38, 3-(4-(((2S,3S)-1-((2′-chloro-4′-methoxy-[1,1′-biphenyl]-4-yl)oxy)-3-methylpentan-2-yl)amino)benzamido)propanoic Acid] | – | – | 0.203 µM | 0.172 µM | – |
| CCCC[C@H](Cc1ccc(-c2ccc(C(F)(F)F)cc2)cc1)Nc1ccc(C(=O)NCCC(=O)O)cc1 [Compound 19-1, (R)-3-(4-((1-(4′-(trifluoromethyl)-[1,1′-biphenyl]-4-yl)hexan-2-yl)amino)benzamido)propanoic Acid] | 0.3938 µM | 0.109 µM | – | – | – |
| CC(C)COC[C@@H](Cc1ccc(-c2cc3ccccc3o2)cc1)Nc1ccc(C(=O)NCCC(=O)O)cc1 [Compound 19-21, (R)-3-(4-((1-(4-(benzofuran-2-yl)phenyl)-3-isobutoxypropan-2-yl)amino)benzamido)propanoic Acid] | 0.4373 µM | 0.269 µM | – | – | – |
| O=C(O)CCNC(=O)c1ccc(N[C@@H](Cc2ccc(F)cc2)C(=O)Nc2ccc(-c3cc4ccccc4o3)cc2)cc1 [Compound 23-10, (S)-3-(4-((1-((4-(benzofuran-2-yl)phenyl)amino)-3-(4-fluorophenyl)-1-oxopropan-2-yl)amino)benzamido)propanoic Acid] | 1.9 µM | 0.061 µM | – | – | – |
| COc1cc(OC[C@@H](Nc2ccc(C(=O)NCCC(=O)O)cc2)C(C)C)ccc1-c1ccc(C(F)(F)F)cc1Cl [Compound 13-6, (S)-3-(4-((1-((2′-chloro-2-methoxy-4′-(trifluoromethyl)-[1,1′-biphenyl]-4-yl)oxy)-3-methylbutan-2-yl)amino)benzamido)propanoic Acid] | – | – | 0.097 µM | 0.089 µM | – |
| CC(C)[C@H](Nc1ccc(C(=O)NCCS(=O)(=O)O)cc1)C(=O)Nc1ccc(-c2cc3ccccc3o2)cc1 [Compound 23-34, (S)-2-(4-((1-((4-(benzofuran-2-yl)phenyl)amino)-3-methyl-1-oxobutan-2-yl)amino)benzamido)ethane-1-sulfonic Acid] | 75.611 µM | 2.57 µM | – | – | – |
| CCCC[C@@H](COc1nnc(-c2cc3ccccc3o2)o1)Nc1ccc(C(=O)NCCC(=O)O)cc1 [Compound 22-4, (S)-3-(4-((1-((5-(benzofuran-2-yl)-1,3,4-oxadiazol-2-yl)oxy)hexan-2-yl)amino)benzamido)propanoic Acid] | >30 µM | > 30 µM | – | – | – |
| CC(C)C[C@H](Nc1ccc(C(=O)NCCC(=O)O)cc1)C(=O)Nc1ccc(-c2cc3ccccc3[nH]2)cc1 [Compound 23-29, (S)-3-(4-((1-((4-(1H-indol-2-yl)phenyl)amino)-4-methyl-1-oxopentan-2-yl)amino)benzamido)propanoic Acid] | – | 0.141 µM | – | – | IC50 cAMP ([1]; uM): >10 µM |
| CCOC(=O)CCNC(=O)c1ccc(N[C@@H](Cc2ccccc2)C(=O)Nc2ccc(-c3ccc(Cl)cc3Cl)cc2)cc1 [Compound 23-15, Ethyl (S)-3-(4-((1-((2′,4′-dichloro-[1,1′-biphenyl]-4-yl)amino)-1-oxo-3-phenylpropan-2-yl)amino)benzamido)propanoate] | 6.3 µM | – | – | – | IC50 (glucagon receptor (GCGR); uM): > 10 µM |
| CC[C@H](C)[C@@H](COc1ccc(-c2ccc(Cl)cc2Cl)nc1)Nc1ccc(C(=O)NCCC(=O)O)cc1 [Compound 10-15, 3-(4-(((2S,3S)-1-((6-(2,4-dichlorophenyl)pyridin-3-yl)oxy)-3-methylpentan-2-yl)amino)benzamido)propanoic Acid] | – | – | 0.301 µM | 0.179 µM | – |
| CC[C@H](C)[C@@H](COc1ccc(-c2ccc(C(F)(F)F)cc2Cl)c(OC)c1)Nc1ccc(C(=O)NCCC(=O)O)cc1 [Compound 13-3, 3-(4-(((2S,3S)-1-((2′-chloro-2-methoxy-4′-(trifluoromethyl)-[1,1′-biphenyl]-4-yl)oxy)-3-methylpentan-2-yl)amino)benzamido)propanoic Acid] | – | – | 0.071 µM | 0.057 µM | – |
| CC(C)[C@@H](COc1ccc(-c2cc3ccccc3o2)c(Cl)c1)Nc1ccc(C(=O)NCCS(=O)(=O)O)cc1 [Compound 3-18, (S)-2-(4-((1-(4-(benzofuran-2-yl)-3-chlorophenoxy)-3-methylbutan-2-yl)amino)benzamido)ethane-1-sulfonic Acid] | – | – | >30 µM | 0.836 µM | – |
| CCCC[C@@H](COc1ccc(-c2ccc(C(F)(F)F)cc2Cl)c(F)c1)Nc1ccc(C(=O)NCCC(=O)O)cc1 [Compound 8-15, (S)-3-(4-((1-((2′-chloro-2-fluor-4′-(trifluromethyl)-[1,1′-biphenyl]-4-yl)oxy)hexan-2-yl)amino)benzamido)propanoic Acid] | – | – | 0.129 µM | 0.059 µM | – |
| CC(C)[C@@H](COc1ccc(-c2ccc(C(F)(F)F)cc2F)nn1)Nc1ccc(C(=O)NCCC(=O)O)cc1 [Compound 17-9] | – | – | 11.597 µM | 2.6 µM | – |
| CCCC[C@@H](COc1ccc(-c2ccc(C(F)(F)F)cc2F)cn1)Nc1ccc(C(=O)NCCC(=O)O)cc1 [Compound 15-26, (S)-3-(4-((1-((5-(2-fluoro-4-(trifluoromethyl)phenyl)pyridin-2-yl)oxy)hexan-2-yl)amino)benzamido)propanoic Acid] | 0.2066 µM | 0.228 µM | – | – | – |
| Cc1nn(-c2ncc(OC[C@H](CC(C)C)Nc3ccc(C(=O)NCCC(=O)O)cc3)cn2)cc1C(F)(F)F [Compound 12-1, (S)-3-(4-((4-methyl-1-((2-(3-methyl-4-(trifluoromethyl)-1H-pyrazol-1-yl)pyrimidin-5-yl)oxy)pentan-2-yl)amino)benzamido)propanoic Acid] | – | – | 14.17 µM | 0.674 µM | – |
| CC(C)C[C@H](Nc1ccc(C(=O)NCCC(=O)O)cc1)C(=O)Nc1ccc(-c2ccc(C(F)(F)F)cc2)cc1 [Compound 23-4, (S)-3-(4-((4-methyl-1-oxo-1-((4′-(trifluoromethyl)-[1,1′-biphenyl]-4-yl)amino)pentan-2-yl)amino)benzamido)propanoic Acid] | 3.2 µM | 0.269 µM | – | – | – |
| CC(C)[C@@H](COc1cnc(-c2cc3ccccc3o2)nc1)Nc1ccc(C(=O)NCCC(=O)O)cc1 [Compound 12-2, (S)-3-(4-((1-((2-(benzofuran-2-yl)pyrimidin-5-yl)oxy)-3-methylbutan-2-yl)amino)benzamido)propanoic Acid] | – | – | 6.849 µM | 0.266 µM | – |
| CCCC[C@@H](COc1ccc(-c2ccc(C(F)(F)F)cc2F)c(Cl)c1)Nc1ccc(C(=O)NCCC(=O)O)cc1 [Compound 3-22, (S)-3-(4-((1-((2-chloro-2′-fluoro-4′-(trifluoromethyl)-[1,1′-biphenyl]-4-yl)oxy)hexan-2-yl)amino)benzamido)propanoic Acid] | – | – | 0.054 µM | 0.083 µM | – |
| CC[C@H](C)[C@@H](CSc1ccc(-c2ccc(C(F)(F)F)cc2)cc1)Nc1ccc(C(=O)NCCC(=O)O)cc1 [Compound 5-2, 3-(4-(((2S,3S)-3-methyl-1-((4′-(trifluoromethyl)-[1,1′-biphenyl]-4-yl)thio)pentan-2-yl)amino)benzamido)propanoic Acid] | – | – | 2.465 µM | 1.19 µM | – |
| CC[C@H](C)[C@@H](COc1ccc(-c2ccc(Cl)cc2Cl)cc1)Nc1ccc(C(=O)NCc2nnn[nH]2)cc1 [Compound 1-13, N-((1H-tetrazol-5-yl)methyl)-4-(((2S,3S)-1-((2′,4′-dichloro-[1,1′-biphenyl]-4-yl)oxy)-3-methylpentan-2-yl)amino)benzamide] | – | – | 1.73 µM | 0.141 µM | – |
| CC(C)[C@@H](COc1ccc(-c2ccc(F)cc2)nn1)Nc1ccc(C(=O)NCCC(=O)O)cc1 [Compound 17-10, (S)-3-(4-((1-((6-(4-fluorophenyl)pyridazin-3-yl)oxy)-3-methylbutan-2-yl)amino)benzamido)propanoic Acid] | – | – | >30 µM | 2.3 µM | – |
| CCCC[C@@H](COc1ccc(-c2cc3ccccc3o2)c(C)n1)Nc1ccc(C(=O)NCCC(=O)O)cc1 [Compound 18-1, (S)-3-(4-((1-((5-(benzofuran-2-yl)-6-methylpyridin-2-yl)oxy)hexan-2-yl)amino)benzamido)propanoic Acid] | 0.25 µM | 0.386 µM | – | – | – |
| CC[C@H](C)[C@@H](COc1ccc(-c2ccc(C(F)(F)F)cc2Cl)c(F)c1)Nc1ccc(C(=O)NCCC(=O)O)cc1 [Compound 8-8, 3-(4-(((2S,3S)-1-((2′-chloro-2-fluoro-4′-(trifluoromethyl)-[1,1′-biphenyl]-4-yl)oxy)-3-methylpentan-2-yl)amino)benzamido)propanoic Acid] | – | – | 0.5 µM | 0.277 µM | – |
| CC[C@H](C)[C@@H](COc1cc(C)c(-c2ccc(C(C)(C)C)cc2)c(C)c1)Nc1ccc(C(=O)NCCC(=O)O)cc1 [Compound 2-6, 3-(4-(((2S,3S)-1-((4′-(tert-butyl)-2,6-dimethyl-[1,1′-biphenyl]-4-yl)oxy)-3-methylpentan-2-yl)amino)benzamido)propanoic Acid] | – | – | 0.448 µM | 0.067 µM | – |
